pIC50: −log10 of the molar value. Values joined by “and” are separate entries in the source; they are usually repeats but may differ in a detail not shown here. Identical values can stand only once. Like-named read-outs stand apart in the source and are kept apart here.
Columns and labels:
[1] = system: P388 murine leukemia cells (drug-resistant line); assay: cells; type: cell-based; details: Mus musculus
Protocol: ICs for cytochalasins and antineoplastic agents were determined by inoculating wells containing cultured cells with dilutions of the desired compound, and the resulting exposed cell viability determined at a fixed timepoint after exposure (i.e., 20 or 48 hours). The concentration of the compound that is found to inhibit 50% of the initial cells cultured is the IC50 of that compound with respect to those cells. The IC90 and IC100s can similarly be determined.
Inhibitory concentrations ("ICs") of ADR, CA, and CB on P388 murine leukemia cells (drug-resistant line) were determined as follows.
Cells (5 X 10⁴) were plated out in 200 uL of RPMI 1640 medium containing 10% calf serum. CB, CA, and ADR were added to wells as follows to determine inhibitory concentration as follows: 8 wells were inoculated with dilutions of CB: 0.00 uM CB, 1.00 uM CB, 2.00 uM CB, 4.00 uM CB, 10.00 uM CB, 20.00 uM, 40.00 uM CB, and 80.00 uM CB. […]
All wells were incubated at 37°C, in 5% CO₂ for 3 hours, after which time the plate was centrifuged at 600 X g for 5 minutes, the drug medium removed and replaced with 200 uL of fresh RPMI 1640 medium, containing 10% calf serum, centrifuged again at 600 X g, and cells refed and incubated for 45 hours at 37°C, in 5% CO₂. After the 45 hour incubation, the cells were analyzed for viability using the MTT reduction assay as described in Alley et al.

[2] = system: P388 murine leukemia cells (P388/ADR); assay: P388/ADR cells in 24-well plates, 3 hours exposure, Coulter counting after 96 hours; type: cell-based; details: Mus musculus
Protocol: P388 murine leukemia cells (P388/ADR) selected for multi-drug resistance to doxorubicin and other natural product anti-tumor agents, provided by the National Institutes of Health, were seeded at 5 X 10⁴ cells/ml in 24-well microtiter plates, 2.0 ml per well, in RPMI 1640 medium with 10% fetal calf serum and 10 uM mercaptoethanol. The cells were allowed to equilibrate and divide overnight at 37°C, in 5% CO₂, then treated in duplicate wells with ADR at 2.5, 5, 10, and 20 uM. Other duplicate wells were treated with CB at 2.5, 5, 7.5, 10, and 20 uM. Duplicate wells also contained the above amounts of ADR and CB, which were added to the cells simultaneously. […] After 3 hours of incubation at 37°C, the cells from each well were transferred to sterile centrifuge tubes, and the wells washed with 2.0 ml of sterile medium to assure full cell transfer. The tubes were centrifuged at 600 x g for 5 minutes, and the drug-medium decanted and discarded. The cells were then resuspended in 2.0 ml of fresh medium and plated into 24-well plates, incubated at 37° C for 96 hours, and cell viability and growth after treatment determined by Coulter counting.

[3] = system: Madison 109 (M109) carcinoma; assay: Madison 109 carcinoma tumor model in mice treated with a single bolus of CB; type: in vivo, CD2F₁ mice
Protocol: For SC tumors, growth was monitored by calculating tumor weight according to the methods of Johnson et al. (1975, Cancer Chemo. Rep., 59(4):697-705). For IP and IV-induced tumors, growth was determined by host survival. Metastases were determined at necropsy by fixation of the organ in Bouins solution according to standard procedure, and metastatic foci counted under a dissecting microscope (see Table 1).
Madison 109 (M109) carcinoma was maintained in Balb/c and CD2F₁ mice by serial passage of 20% tumor brei (approximately 1X10⁶ total cells) in mice every 12 days according to the techniques of Rose (1981, Cancer Treat. Rep., 65:299-312). The CD2F₁ were implanted with 0.2 ml M109 SC ventrally on the abdomen. Tumor brei were prepared by excising the tumor from the passage mouse, removing any necrotic areas, weighing the tumor, mincing it, and suspending the fragments in 0.1 ml 20% (v/v) penicillin/streptomycin (Gibco) and 0.85% (w/v) sterile sodium chloride solution (total 1.0 ml/g tumor), and dispersed by repeated aspiration and expulsion through a syringe. The suspension was then diluted to 20% with 0.85% sterile sodium chloride and 0.2 ml was injected SC. Viability of the tumor suspension was about 20%, as determined by the standard trypan blue exclusion test.
The above procedure was repeated, administering the M109 tumor brei IV 90.1 ml) through the tail vein, or IP (0.2 ml).
Mice (6) were subcutaneously implanted with 1X10⁵ tumor cells as isolated in Example 4 on Day 0, and drug treatment was given on Day 1. CB (100 mg/kg mouse, or 0.2 ml of 10.0 mg/ml CB, per 20 gm mouse), suspended in CMC/Tw was administered to mice.
Lower tumor weight was detected in all the treated groups as compared to controls, although this difference lessened with advancing stage of tumor growth. […] No effect on reducing tumor metastases in the liver or spleen was detected with SC administration of CB.

[4] = Maximum tolerated single bolus dose (MTD) of CB by vehicle and route of administration; type: in vivo, CD2F₁ mice; details: for MTD: mouse, in vivo
Protocol: (§1) The maximum tolerated single bolus dose (MTD) of CB (LD₅₋₁₀) was estimated as a function of vehicle and route of administration, in M109 tumor-bearing, B16F10 tumor-bearing, and normal mice (Table 2). Both CD2F₁ and B6D2F₁ mice were tested. […] In tissue distribution studies of CB in vivo, 50 mg/kg (1000 ug/20 g mouse) was injected intraperitoneally and the distribution determined at time intervals thereafter as explained in Example 13. […] It is cleared from the spleen and pancreas by 12 hours, but persists in liver for 72 hours. Some CB is metabolized within the first few minutes after injection, but the remaining 35% persists in liver for up to 72 hours. Sustained release formulations such as liposomes would maintain active CB in tissues.
The vehicles used in the invention may be selected with regard to the intended route of administration and standard pharmaceutical practice. The preparations can be injected parenterally, for example, intra-arterially or intravenously. The preparations may also be administered via oral, subcutaneous, intraperitoneal, or intramuscular routes. For parenteral administration, they can be used, for example, in the form of a sterile pyrogen-free aqueous solution which may contain other solutes.
For example, in the present studies, 0.85% (wt/v) sterile sodium chloride solution, sterile pyrogen-free CM-cellulose (1%)Tween-20 (2%), 10% Intralipid (Cutter Laboratories), or 48% ethanol/sodium chloride (v/v) solution were used as vehicles. Liposomes can alternatively be used as a vehicle. In such cases, the CB can be entrapped by any of the methods known in the art for forming liposomes, mentioned hereinbelow, and administered by any of the above-named routes of administration.
The MTD of CB suspension in pyrogen-free carboxymethyl cellulose(1%)/Tween -20 (2%) was 100 mg/kg SC, 50 mg/kg IP, and 10 mg/kg IV when administered to CD2F₁ mice. In DMSO, the MTD was 25 mg/kg IP, and less than 100 mg/kg SC, and in 33% ethanol, 10 mg/kg IV. At doses of 100 -150 mg/kg CB administered SC in CMC/Tw to CD2F₁ mice that had sustained challenge 24 hr with M109 tumor cells implanted SC, appearance of measurable tumor nodules were delayed by 66%.
The maximum tolerated dose (MTD) of CB (50 mg/kg CB) by intraperitoneal administration was determined by the following procedure. A solution of CB as isolated by Example 2 was obtained by sonication of the CB in DMSO (to make a 25 mg/kg solution of CB) for 2 minutes in an ultrasonic bath at 80-90 Hz power.
The above procedure was repeated for CB in CM-cellulose/Tween 20 (CMC/Tw) vehicle (0.1 ml administered).
The above procedures were repeated for 25 and 100 mg/kg CB in DMSO, and for 100 mg/kg CB in CMC/Tw.
The maximum tolerated dose (MTD) of CB (150 mg/kg, in CMC/Tw) by subcutaneous administration over the peritoneal wall was determined by the procedure of Example 8.
The maximum tolerated dose (MTD) of CB (5 mg/kg) by intravenous administration was determined by the procedure of Example 7. The CB was suspended in 0.1 ml 95% ethanol/0.85% NaCl (1:2 v/v), heated to 37°C and administered via tail vein within 5 minutes of mixing.
The above procedure was repeated using 0.1 ml CM-Cellulose/Tween 20.
The above procedure was repeated using 10, 20, 40, and 50 mg/kg dose of CB with the CM-Cellulose/Tween 20 vehicle, and 10, 20, and 40 mg/kg CB with EtOH/NaCl.

[5] = short-term exposure of about 2 hours; cited from earlier work
[6] = Tissue distribution of CB in vivo after IP bolus injection, HPLC analysis of tissue extracts; design: species or system mice; details: 50 mg/kg IP single bolus
Protocol: as §1
Livers of mice treated according to Examples 4, 5 and 6 were homogenized with a Brinkman polytron using 5.0 ml of methanol /g tissue. The homogenate was centrifuged at 5000g for 5 minutes. The supernatant was brought to 80% water using HPLC grade water and passed through Sep-Pak C-18 cartridges that had first been conditioned with 5.0 ml methanol, followed by 10.0 ml of distilled water. The cartridges were dried under vacuum and washed with 3.0 ml hexane (HPLC grade), and the CB recovered with 2.0 ml of EtOAc (HPLC grade). The elutes were evaporated under a stream of nitrogen and dissolved in 250 ul tetrohydrofuran (HPLC grade). Samples were filtered through a 0.45 um nylon syringe filter into a 50 ul sample loop. The samples were analyzed by HPLC, using a regular phase silica column, a solvent system of hexane:tetrahydrofuran (60:40), and analyzed at 230 nm. The lower limit of sensitivity was determined to be 1 ug per total extract since 20% was analyzed with a quantitative limit of 0.2 ug.

B16F10 tumor = assay: Dose response against B16F10 tumor in mice, CB given peri-tumorally SC; type: in vivo
Protocol: CB (100 mg/kg) administered peri-tumorally delays the tumor appears from Day 7 to Day 18, when treatment is administered on Day 1.

[7] = CB on Day 1 or when the nodule was detected

COc1cccc2c1C(=O)c1c(O)c3c(c(O)c1C2=O)C[C@@](O)(C(=O)CO)C[C@@H]3O[C@H]1C[C@H](N)[C@H](O)[C@H](C)O1 [ADR, doxorubicin, reference compound]
pIC50 ([1]; 3 hours exposure, viability by MTT after 45 hours, read-out: IC50): 5.46

C=C1C(C)C2C(Cc3ccccc3)NC(=O)C23OC(=O)C=CC(O)CCCC(C)CC=CC3C1O (stereo not drawn) [CB, cytochalasin B]
pIC50 [2]: 4.40 to 4.46
lung tumor nodules (metastases) versus vehicle controls ([3]; 100 mg/kg CB SC at the time of tumor detection): fewer lung tumor nodules
delay of appearance of measurable tumor nodules ([3]; 100-150 mg/kg CB SC in CMC/Tw, CD2F₁ mice, 24 hr after SC M109 challenge): 66%
animals tumor-free by Day 50 [3, 7]: 33%
median survival time [3, 7]: increased median survival time
cytotoxic effects (life span) ([3]; IV tumor challenge, 50 mg/kg CB by the IP route): no cytotoxic effects were observed
tumor metastases in the liver or spleen ([3]; SC administration of CB): No effect
tumor growth rate ([3]; SC peri-tumorally on Day 1 or when a measurable nodule was observed (around Day 6)): significant decrease in tumor growth rate
effect on SC tumor ([3]; SC single bolus 24 hours after tumor challenge or when the tumor appeared (about day 6)): delay the appearance of measurable tumor nodules, to slow growth rate of the nodule to inhibit invasion, and to extend life span
toxicity in DMSO relative to CM-Cellulose/Tween 20 ([4]; IP administration (Example 8)): approximately twice as toxic
toxicity in DMSO relative to CM-Cellulose/Tween 20 ([4]; SC administration (Example 9)): approximately twice as toxic
MTD ([4]; ip, CB suspension in carboxymethyl cellulose(1%)/Tween-20 (2%), single bolus, CD2F₁ mice): 50 mg/kg
MTD ([4]; ip, in DMSO): 25 mg/kg
MTD ([4]; iv, CB suspension in carboxymethyl cellulose(1%)/Tween-20 (2%), single bolus, CD2F₁ mice): 10 mg/kg
MTD ([4]; iv, in 33% ethanol): 10 mg/kg
MTD ([4]; sc, CB suspension in carboxymethyl cellulose(1%)/Tween-20 (2%), single bolus, CD2F₁ mice): 100 mg/kg
MTD ([4]; sc, in DMSO): < 100 mg/kg
sensitivity to CB of CD2F₁ as compared to B6D2F₁ mice ([4]; single bolus dose): Slightly greater sensitivity
non-cytotoxic concentration [5]: up to 100 ug/ml and ≤ 200 uM
persistence in liver [6]: 72 h
time by which cleared from the spleen and pancreas [6]: ≤ 12 h
tissue distribution [6]: appears at the highest levels in liver, spleen, and pancreas
remaining CB that persists in liver for up to 72 hours ([6]; some CB metabolized within the first few minutes): 35%
pIC50 [1]: 4.40 to 4.46
day of tumor appearance (B16F10 tumor; CB 100 mg/kg peri-tumorally on Day 1, without treatment Day 7): 18 days
tumor nodule growth rate (B16F10 tumor; CB administered subcutaneously): measurable effect
